Data reported in patent US20240174637A1, “DEGRADERS OF GRK2 AND USES THEREOF” (Sonata Therapeutics, Inc., priority 2021, published 2024).
Where two headings read alike, the source gives them in different places.

Experiments:
Type in all cases: cell-based
[1] = molecular target: T1, GRK2 (Homo sapiens, UniProt P25098); assay: GRK2 Degradation Assay and Western Blot in PAXF1657 cells; design: endogenous in cells; host or cells: PAXF1657
T1 sequence (P25098 1-689): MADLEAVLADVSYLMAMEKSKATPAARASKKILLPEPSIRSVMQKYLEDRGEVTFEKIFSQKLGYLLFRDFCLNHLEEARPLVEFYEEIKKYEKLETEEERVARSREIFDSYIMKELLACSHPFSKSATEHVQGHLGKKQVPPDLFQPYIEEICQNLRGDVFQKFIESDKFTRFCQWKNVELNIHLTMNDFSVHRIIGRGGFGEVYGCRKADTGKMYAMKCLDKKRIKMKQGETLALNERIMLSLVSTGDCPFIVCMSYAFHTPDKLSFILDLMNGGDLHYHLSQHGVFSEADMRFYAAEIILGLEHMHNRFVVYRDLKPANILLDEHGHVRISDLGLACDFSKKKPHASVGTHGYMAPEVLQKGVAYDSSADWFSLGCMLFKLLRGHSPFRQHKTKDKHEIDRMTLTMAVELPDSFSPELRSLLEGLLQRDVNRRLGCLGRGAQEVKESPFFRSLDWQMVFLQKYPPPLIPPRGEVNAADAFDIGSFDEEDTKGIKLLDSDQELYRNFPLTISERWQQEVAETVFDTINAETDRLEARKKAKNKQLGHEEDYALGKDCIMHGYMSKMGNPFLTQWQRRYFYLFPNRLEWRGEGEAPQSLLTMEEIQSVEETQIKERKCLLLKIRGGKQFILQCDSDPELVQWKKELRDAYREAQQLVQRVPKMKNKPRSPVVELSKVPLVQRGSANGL
Description: General Protocol: Degradation Assay and Western Blot. PAXF1657 cells were plated in 6-well, 24-well plates or 60 mm tissue culture treated dishes and incubated at 37° C. until 70% confluency. The media was aspirated, and the cells were treated with fresh media containing the compounds in the concentration range of 0 μM to 10 μM for a period of 6 to 24 hours. At the desired time points the cells were washed twice with cold PBS and lysed with lysis buffer (ice cold PBS+1% NP40 with 1/100 protease/phosphatase inhibitors) on ice for 8 mins followed by sonication at 70% intensity pulses for 10 seconds. The cells were centrifuged at 20000 g for 8 min at 4° C. The supernatants were collected and stored at −80° C.
Samples were mixed with NuPAGE LDS sample buffer and NuPAGE sample reducing buffer (3×), vortexed and heated at 95° C. for 10 min, and then analyzed by SDS-PAGE (NuPAGE 4-12%) followed by transfer to nitrocellulose membrane. […] The membranes were washed three times with TBST and incubated with GRK2 or R-actin antibodies in 5% milk in TBST at 4° C. overnight. The membranes were washed three times with TBST and incubated with anti-mouse IgG-HRP or anti-rabbit IgG-HRP at room temperature for 2 hours in 5% milk in TBST. The membranes were washed three times with TBST and developed with ECL Dura, ECL femto or ECL atto substrates.

[2] = system: PAXF1657 KO Clone #4; assay: 7-day cellular proliferation assay (CellTiter-Glo), PAXF1657 KO Clone #4
Description: (§1) In order to identify compounds specific for GRK2, we generated two isogenic cell line pairs of the pancreatic cancer cell line PAXF1657, a pair of cells stably overexpressing GRK2 cDNA or the control empty vector and a cell line pair of PAXF1657 GRK2 knockout clonal cells versus non-targeting control clonal cells.
(§2) Proliferation Assay: Cellular anti-proliferative activity of compounds was assessed by using the pancreatic cancer cell line, PAXF1657, stably overexpressing GRK2 cDNA or the control empty vector, as well as the parental urinary bladder cancer cell line, 5637. In addition, we also took advantage of GRK2 knockout cell lines that were generated via CRISPR. Cell lines were seeded into tissue culture treated, white-walled, 96-well plates at a density of 500 cells/well in RPMI1640 media supplemented with 10% H.I. FBS and penicillin/streptomycin. Plates were incubated overnight at 37° C., 5% CO2 to allow cells to adhere to the wells. GRK2 inhibitors were added to the cells using a 10-point dilution series with a final concentration ranging from 30 μM-0.0002 μM in 0.3% DMSO. At the time of compound addition, a set of plates, that were not treated with compounds, were collected and cell viability was measured using CellTiter-Glo (Promega). CellTiter-Glo reagent was added to the designed plates and luminescence was measuring using a Biotek Synergy plate reader. The compound treated cells were incubated for 3 days at 37° C., 5% CO2. The media was then aspirated from each well and replaced with fresh media containing GRK2 inhibitors. The compound treated cells were then incubated for an additional 4 days at 37° C., 5% CO2. Cell viability was assessed and at end of the 7-day compound treatment by CellTiterGlo.

[3] = system: PAXF1657 EV; assay: 7-day cellular proliferation assay (CellTiter-Glo), PAXF1657 EV
Description: as §1, §2

[4] = 0.3 uM, PAXF1657 EV, 24 hrs, read-out: % GRK2 degradation at 0.3 uM in PAXF1657 EV (24 hrs)
[5] = 1 uM, PAXF1657 EV, 24 hrs, read-out: % GRK2 degradation at 1 uM in PAXF1657 EV (24 hrs)
[6] = 3 uM, PAXF1657 EV, 24 hrs, read-out: % GRK2 degradation at 3 uM in PAXF1657 EV (24 hrs)
[7] = 168 h, 7-day, read-out: 7-day proliferation assay: IC50 GeoMean (uM) [Cell Line: PAXF1657 KO Clone #4]
[8] = 168 h, 7-day, read-out: 7-day proliferation assay: IC50 GeoMean (uM) [Cell Line: PAXF1657 EV]
[9] = Conc 0.3 uM, read-out: Degradation Assay - 3 point: Degradation (%)
[10] = Conc 1 uM, read-out: Degradation Assay - 3 point: Degradation (%)
[11] = Conc 3 uM, read-out: Degradation Assay - 3 point: Degradation (%)
[12] = proliferation, read-out: GeoMean IC50 (uM) PAXF1657 KO Clone #4
[13] = proliferation, read-out: GeoMean IC50 (UM) PAXF1657 EV

inhibition at 0.3 µM [1, 4] [%] | inhibition at 1 µM [1, 5] [%] | inhibition at 3 µM [1, 6] [%] | inhibition at 0.3 µM [1, 9] [%] | inhibition at 1 µM [1, 10] [%] | inhibition at 3 µM [1, 11] [%] | Compound | IC50 [2, 7] [µM] | IC50 [3, 8] [µM] | IC50 [2, 12] [µM] | IC50 [3, 13] [µM]
7 | 41 | 68 |  |  |  | Cn1c(CNc2cccc(C(=O)NCc3cccc(OCCCCCn4cc(CCCCC(=O)Nc5cccc6c5CN(C5CCC(=O)NC5=O)C6=O)nn4)c3)c2)nnc1-c1ccncn1 (centres unmarked) [Compound D58] | > 10 | 1 to 10 |  | 
28 | 55 | 52 |  |  |  | Cn1c(CNc2cccc(C(=O)NCc3cccc(OCCCCCCCn4cc(CCCC(=O)Nc5cccc6c5CN(C5CCC(=O)NC5=O)C6=O)nn4)c3)c2)nnc1-c1ccncn1 (centres unmarked) [Compound D61] | > 10 | > 10 |  | 
-3 | 1 | 5 |  |  |  | Cc1ncsc1-c1ccc(CNC(=O)[C@@H]2C[C@@H](O)CN2C(=O)[C@@H](NC(=O)CCCc2cn(CCCCCOc3cccc(CNC(=O)c4cccc(NCc5nnc(-c6ccncn6)n5C)c4)c3)nn2)C(C)(C)C)cc1 [Compound D81] | > 10 | > 10 |  | 
 | 19 | 20 |  |  |  | Cn1c(CNc2cccc(C(=O)NCc3cccc(OCCOCCOCCOCCC(=O)Nc4cccc5c4CN(C4CCC(=O)NC4=O)C5=O)c3)c2)nnc1-c1ccncn1 (centres unmarked) [Compound D107] | > 10 | > 10 |  | 
 | -6 | 0 |  |  |  | Cn1c(CNc2cccc(C(=O)NCc3cccc(OCCCCCC(=O)NCCOCCOCCOCCC(=O)Nc4cccc5c4CN(C4CCC(=O)NC4=O)C5=O)c3)c2)nnc1-c1ccncn1 (centres unmarked) [Compound D113] | > 10 | > 10 |  | 
 | 32 | 15 |  |  |  | Cn1c(CNc2cccc(C(=O)NCc3cccc(OCCCCCCC(=O)NCCOCCOCCOCCC(=O)Nc4cccc5c4CN(C4CCC(=O)NC4=O)C5=O)c3)c2)nnc1-c1ccncn1 (centres unmarked) [Compound D114] | > 10 | > 10 |  | 
 | -14 | -2 |  |  |  | Cc1ncsc1-c1ccc(CNC(=O)[C@@H]2C[C@@H](O)CN2C(=O)[C@@H](NC(=O)CCOCCOCCOCCNC(=O)CCCCOc2cccc(CNC(=O)c3cccc(NCc4nnc(-c5ccncn5)n4C)c3)c2)C(C)(C)C)cc1 [Compound D115] | 1 to 10 | > 10 |  | 
 |  |  | 61.9 | 58.1 | -21.9 | Cn1c(CNc2cccc(C(=O)N[C@H]3CCOc4ccc(OCCCCCOCCCOCC(=O)Nc5cccc6c5CN(C5CCC(=O)NC5=O)C6=O)cc43)c2)nnc1-c1ccncn1 (stereo partly drawn) [Compound D155, N-((4S)-6-(5-(3-(2-(2-(2,6-dioxopiperidin-3-yl)-1-oxoisoindolin-4-ylamino)-2-oxoethoxy)propoxy)pentyloxy)chroman-4-yl)-3-((4-methyl-5-(pyrimidin-4-yl)-4H-1,2,4-triazol-3-yl)methylamino)benzamide] |  |  | > 30 | > 30
 |  |  | -8.15 | 2.96 | 11.5 | Cn1c(CNc2cccc(C(=O)N[C@H]3CCOc4ccc(OCCCCCCOCCOCCOCCCCCC(=O)Nc5cccc6c5CN(C5CCC(=O)NC5=O)C6=O)cc43)c2)nnc1-c1ccncn1 (stereo partly drawn) [Compound D156, N-((4S)-6-(6-(2-(2-(6-(2-(2,6-dioxopiperidin-3-yl)-1-oxoisoindolin-4-ylamino)-6-oxohexyloxy)ethoxy)ethoxy)hexyloxy)chroman-4-yl)-3-((4-methyl-5-(pyrimidin-4-yl)-4H-1,2,4-triazol-3-yl)methylamino)benzamide] |  |  | > 30 | 2.15
 |  |  | 1.96 | 17.7 | 20.6 | Cc1ncsc1-c1ccc(CNC(=O)[C@@H]2C[C@@H](O)CN2C(=O)[C@@H](NC(=O)COCCCOCCCCCOc2cccc([C@H](C)NC(=O)c3cccc(NCc4nnc(-c5ccncn5)n4C)c3)c2)C(C)(C)C)cc1 [Compound D184, (2S,4R)-1-((S)-3,3-dimethyl-2-(2-(3-((5-(3-((S)-1-(3-(((4-methyl-5-(pyrimidin-4-yl)-4H-1,2,4-triazol-3-yl)methyl)amino)benzamido)ethyl)phenoxy)pentyl)oxy)propoxy)acetamido)butanoyl)-4-hydroxy-N-(4-(4-methylthiazol-5-yl)benzyl)pyrrolidine-2-carboxamide] |  |  |  | 
 |  |  | 13.5 | 37.4 | 56.2 | Cn1c(CNc2cccc(C(=O)N[C@@H]3CCOc4ccc(OCCCCCOCCCOCC(=O)Nc5cccc6c5CN(C5CCC(=O)NC5=O)C6=O)cc43)c2)nnc1-c1ccncn1 (stereo partly drawn) [Compound D192, N-((4R)-6-(5-(3-(2-(2-(2,6-dioxopiperidin-3-yl)-1-oxoisoindolin-4-ylamino)-2-oxoethoxy)propoxy)pentyloxy)chroman-4-yl)-3-((4-methyl-5-(pyrimidin-4-yl)-4H-1,2,4-triazol-3-yl)methylamino)benzamide] |  |  |  | 
 |  |  | 19.3 | 16.7 | 29.6 | C[C@H](NC(=O)c1cccc(NCc2nnc(-c3ccncn3)n2C)c1)c1cccc(OCCCCCCOCCOCC(=O)Nc2cccc3c2CN(C2CCC(=O)NC2=O)C3=O)c1 (stereo partly drawn) [Compound D193, N-((1S)-1-(3-((6-(2-(2-((2-(2,6-dioxopiperidin-3-yl)-1-oxoisoindolin-4-yl)amino)-2-oxoethoxy)ethoxy)hexyl)oxy)phenyl)ethyl)-3-(((4-methyl-5-(pyrimidin-4-yl)-4H-1,2,4-triazol-3-yl)methyl)amino)benzamide] |  |  |  | 
 |  |  | 25 | 15 | 0 | C[C@@H](NC(=O)c1cccc(NCc2nnc(-c3ccncn3)n2C)c1)c1cccc(OCCCCCOCCCOCC(=O)Nc2cccc3c2CN(C2CCC(=O)N(C)C2=O)C3=O)c1 (stereo partly drawn) [Compound D194, N-((1R)-1-(3-((5-(3-(2-((2-(1-methyl-2,6-dioxopiperidin-3-yl)-1-oxoisoindolin-4-yl)amino)-2-oxoethoxy)propoxy)pentyl)oxy)phenyl)ethyl)-3-(((4-methyl-5-(pyrimidin-4-yl)-4H-1,2,4-triazol-3-yl)methyl)amino)benzamide] |  |  |  | 
